{"source": "patent US12527322B2", "about": "“Fungicidal compositions” (SYNGENTA CROP PROTECTION AG, priority 2020, dated 2026)", "key": {"[1]": {"system": "Botrytis cinerea", "assay": "Liquid culture test in well plates: Botrytis cinerea (Gray mould), Example 1-1", "assay_type": "cell-based", "protocol": "(§1) Mycelia fragments or conidia suspensions of a fungus, prepared either freshly from liquid cultures of the fungus or from cryogenic storage, are directly mixed into nutrient broth. DMSO solutions of the test compound (max. 10 mg/mL) is diluted with 0.025% Tween20 by factor 50 and 10 μL of this solution is pipetted into a microtiter plate (96-well format). […] The test plates are incubated in the dark at 24° C. and 96% relative humidity (rh). The inhibition of fungal growth is determined photometrically and visually after 3-7 days, depending on the pathosystem, and percent antifungal activity relative to the untreated check is calculated.\nConidia of the fungus from cryogenic storage were directly mixed into nutrient broth (PDB potato dextrose broth). After placing a DMSO solution of the test compositions into a microtiter plate (96-well format), the nutrient broth containing the fungal spores was added."}, "[2]": {"system": "Alternaria solani", "assay": "Liquid culture test in well plates: Alternaria solani (early blight of tomato/potato), Example 1-2", "assay_type": "cell-based", "conditions": "for inhibition at 0.0012 ppm: component (B) alone at 0.0012 ppm", "protocol": "as §1, with “The inhibition of fungal growth is determined photometrically and visually after 3-7 days, depending on the pathosystem, and percent antifungal activity relative to the untreated check is calculated.” left out\nConidia of the fungus from cryogenic storage were directly mixed into nutrient broth (PDB potato dextrose broth). After placing a DMSO solution of the test compositions into a microtiter plate (96-well format) the nutrient broth containing the fungal spores was added."}, "[3]": {"conditions": "Botrytis cinerea, component (B) alone at 0.0003 ppm, 72 hours"}, "[4]": {"conditions": "Botrytis cinerea, component (B) alone at 0.0006 ppm, 72 hours, read-out: (B) inhibition"}, "[5]": {"conditions": "Botrytis cinerea, component (B) alone at 0.0012 ppm, 72 hours, read-out: (B) inhibition"}, "[6]": {"conditions": "component (B) alone at 0.0006 ppm, 72 hours"}, "[7]": {"conditions": "component (B) alone at 0.0012 ppm, 72 hours"}, "[8]": {"conditions": "component (B) alone at 0.0050 ppm, 72 hours"}, "[9]": {"conditions": "Botrytis cinerea, component (B) alone at 0.0025 ppm, 72 hours"}, "[10]": {"conditions": "Botrytis cinerea, component (B) alone at 0.0050 ppm, 72 hours"}, "[11]": {"conditions": "Alternaria solani, component (B) alone at 0.0025 ppm, 48 hours, read-out: (B) inhibition"}, "[12]": {"conditions": "component (B) alone at 0.0003 ppm, 72 hours"}, "[13]": {"conditions": "component (B) alone at 0.0050 ppm, 48 hours"}}, "note": "Values joined by “and” are separate entries in the source; they are usually repeats but may differ in a detail not shown here. Equal entries are not always repeated. Where two headings read alike, the source gives them in different places. *1 amine or outer side, *2 acyl side, *3 side chain or, on linkers, in order; H or OH if unused. Where a SMILES comes first, the peptide text is derived from it. [ ]: non-standard residue; d: D form. ξ: configuration not given here. ξNMeVal(3-OH) = CNC(C(=O)O)C(C)(C)O; NMeF = CN[CH](Cc1ccccc1)C(=O)O; X1 = CCC(C)C(O[*:1])C(=O)[*:2]; NMeV = CN[CH](C(=O)O)C(C)C"}
{"molecule": "Cc1ccc2c(ncn2C2=NC(C)(C)C(F)(F)c3c(F)cccc32)c1C", "note": "[B-8, 1-(4,5-dimethylbenzimidazol-1-yl)-4,4,5-trifluoro-3,3-dimethyl-isoquinoline]", "values": [{"measurement": "inhibition at 0.0003 ppm", "setting": "[1]; [3]", "result": 22, "unit": "%"}, {"measurement": "inhibition at 0.0006 ppm", "setting": "[1]; [4]", "result": 40, "unit": "%"}, {"measurement": "inhibition at 0.0012 ppm", "setting": "[1]; [5]", "result": 50, "unit": "%"}, {"measurement": "inhibition at 0.0012 ppm", "setting": "[2]; Alternaria solani, 48 hours", "result": 38, "unit": "%"}]}
{"molecule": "N-[(1R)-1-benzyl-3,3,3-trifluoro-1-methyl-propyl]-8-fluoro-quinoline-3-carboxamide/N-[(1S)-1-benzyl-3,3,3-trifluoro-1-methyl-propyl]-8-fluoro-quinoline-3-carboxamide [B-3]", "values": [{"measurement": "(B) inhibition", "setting": "[1]; [6]", "result": 10, "unit": "%"}, {"measurement": "(B) inhibition", "setting": "[1]; [7]", "result": 32, "unit": "%"}, {"measurement": "(B) inhibition", "setting": "[1]; [8]", "result": 52, "unit": "%"}]}
{"molecule": "Cc1ccc2c(C3=NC(C)(C)C(F)(F)c4c(F)cccc43)cnn2c1C", "note": "[B-5, 1-(6,7-dimethylpyrazolo[1,5-a]pyridin-3-yl)-4,4,5-trifluoro-3,3-dimethyl-isoquinoline]", "values": [{"measurement": "inhibition at 0.0006 ppm", "setting": "[1]; [4]", "result": 17, "unit": "%"}, {"measurement": "inhibition at 0.0012 ppm", "setting": "[1]; [5]", "result": 40, "unit": "%"}, {"measurement": "inhibition at 0.0025 ppm", "setting": "[1]; [9]", "result": 57, "unit": "%"}, {"measurement": "inhibition at 0.005 ppm", "setting": "[1]; [10]", "result": 75, "unit": "%"}, {"measurement": "inhibition at 0.0012 ppm", "setting": "[2]; Alternaria solani, 48 hours", "result": 30, "unit": "%"}, {"measurement": "inhibition at 0.0025 ppm", "setting": "[2]; [11]", "result": 56, "unit": "%"}]}
{"molecule": "CCC(C)C1NC(=O)C2CCCN2C(=O)C(Cc2ccccc2)N(C)C(=O)C(Cc2ccccc2)NC(=O)C(C(C)C)N(C)C(=O)C(C(C)CC)OC(=O)C(C(C)(C)O)N(C)C(=O)C(CC(C)C)NC(=O)C(C(C)C)N(C)C1=O", "note": "(stereo not shown) [Aureobasidin A] (cyclo([ξNMeVal(3-OH)][X1][NMeV]F[NMeF]PI[NMeV]L); configuration not given here)", "values": [{"measurement": "(A) inhibition", "setting": "[1]; Aureobasidin A (A) alone at 0.0003 ppm, 72 hours", "result": "9% and 1%"}, {"measurement": "(A) inhibition", "setting": "[1]; Aureobasidin A (A) alone at 0.0006 ppm, 72 hours", "result": 6, "unit": "%"}, {"measurement": "(A) inhibition", "setting": "[1]; Aureobasidin A (A) alone at 0.0200 ppm, 72 hours", "result": 32, "unit": "%"}, {"measurement": "inhibition at 0.0002 ppm", "setting": "[1]; Botrytis cinerea, 72 h, read-out: (A) inhibition, Aureobasidin A (A) alone at 0.0002 ppm", "result": 5, "unit": "%"}, {"measurement": "inhibition at 0.0006 ppm", "setting": "[1]; Botrytis cinerea, 72 h, read-out: (A) inhibition, Aureobasidin A (A) alone at 0.0006 ppm", "result": 9, "unit": "%"}, {"measurement": "inhibition at 0.0012 ppm", "setting": "[1]; Botrytis cinerea, 72 h, read-out: (A) inhibition, Aureobasidin A (A) alone at 0.0012 ppm", "result": 9, "unit": "%"}, {"measurement": "inhibition at 0.0001 ppm", "setting": "[2]; Alternaria solani, 48 h, read-out: (A) inhibition, Aureobasidin A (A) alone at 0.0001 ppm", "result": 9, "unit": "%"}, {"measurement": "inhibition at 0.0025 ppm", "setting": "[2]; Alternaria solani, 48 h, read-out: (A) inhibition, Aureobasidin A (A) alone at 0.0025 ppm", "result": 20, "unit": "%"}, {"measurement": "inhibition at 0.005 ppm", "setting": "[2]; Alternaria solani, 48 h, read-out: (A) inhibition, Aureobasidin A (A) alone at 0.0050 ppm", "result": 5, "unit": "%"}, {"measurement": "inhibition at 0.01 ppm", "setting": "[2]; Alternaria solani, 48 h, read-out: (A) inhibition, Aureobasidin A (A) alone at 0.0100 ppm", "result": 17, "unit": "%"}, {"measurement": "inhibition at 0.04 ppm", "setting": "[2]; Alternaria solani, 48 h, read-out: (A) inhibition, Aureobasidin A (A) alone at 0.0400 ppm", "result": 36, "unit": "%"}, {"measurement": "(A) inhibition", "setting": "[2]; Aureobasidin A (A) alone at 0.0050 ppm, 48 hours", "result": 3, "unit": "%"}, {"measurement": "(A) inhibition", "setting": "[2]; Aureobasidin A (A) alone at 0.0100 ppm, 48 hours", "result": 14, "unit": "%"}]}
{"molecule": "Cc1ccc2c(C3=NC(C)(C)C(F)(F)c4cc(F)ccc43)cnn2c1C", "note": "[B-6, 1-(6,7-dimethylpyrazolo[1,5-a]pyridin-3-yl)-4,4,6-trifluoro-3,3-dimethyl-isoquinoline]", "values": [{"measurement": "inhibition at 0.0006 ppm", "setting": "[1]; [4]", "result": 25, "unit": "%"}, {"measurement": "inhibition at 0.0012 ppm", "setting": "[1]; [5]", "result": 34, "unit": "%"}, {"measurement": "inhibition at 0.0025 ppm", "setting": "[1]; [9]", "result": 68, "unit": "%"}, {"measurement": "inhibition at 0.005 ppm", "setting": "[1]; [10]", "result": 84, "unit": "%"}, {"measurement": "inhibition at 0.0006 ppm", "setting": "[2]; Alternaria solani, component (B) alone at 0.0006 ppm, 48 hours", "result": 22, "unit": "%"}, {"measurement": "inhibition at 0.0012 ppm", "setting": "[2]; Alternaria solani, 48 hours", "result": 39, "unit": "%"}, {"measurement": "inhibition at 0.0025 ppm", "setting": "[2]; [11]", "result": 59, "unit": "%"}]}
{"molecule": "CC1(C)N=C(c2cnc3ccccc3c2)c2ccccc2C1(F)F", "note": "[B-1, quinofumelin]", "values": [{"measurement": "(B) inhibition", "setting": "[1]; [12]", "result": 27, "unit": "%"}, {"measurement": "(B) inhibition", "setting": "[1]; component (B) alone at 0.0005 ppm, 72 hours", "result": 37, "unit": "%"}]}
{"molecule": "N-[(1R)-1-benzyl-1,3-dimethyl-butyl]-8-fluoro-quinoline-3-carboxamide/N-[(1S)-1-benzyl-1,3-dimethyl-butyl]-8-fluoro-quinoline-3-carboxamide [B-2]", "values": [{"measurement": "(B) inhibition", "setting": "[1]; [12]", "result": 2, "unit": "%"}, {"measurement": "(B) inhibition", "setting": "[1]; [6]", "result": 35, "unit": "%"}, {"measurement": "(B) inhibition", "setting": "[1]; [8]", "result": 70, "unit": "%"}, {"measurement": "(B) inhibition", "setting": "[2]; component (B) alone at 0.0025 ppm, 48 hours", "result": 0, "unit": "%"}, {"measurement": "(B) inhibition", "setting": "[2]; [13]", "result": 10, "unit": "%"}, {"measurement": "(B) inhibition", "setting": "[2]; component (B) alone at 0.0100 ppm, 48 hours", "result": 52, "unit": "%"}]}
{"molecule": "N-[(1R)-1-benzyl-3-chloro-1-methyl-but-3-enyl]-8-fluoro-quinoline-3-carboxamide/N-[(1S)-1-benzyl-3-chloro-1-methyl-but-3-enyl]-8-fluoro-quinoline-3-carboxamide [B-4]", "values": [{"measurement": "(B) inhibition", "setting": "[1]; [6]", "result": 33, "unit": "%"}, {"measurement": "(B) inhibition", "setting": "[1]; [7]", "result": 46, "unit": "%"}, {"measurement": "(B) inhibition", "setting": "[1]; component (B) alone at 0.0025 ppm, 72 hours", "result": 60, "unit": "%"}, {"measurement": "(B) inhibition", "setting": "[2]; [13]", "result": 32, "unit": "%"}]}
{"molecule": "Cc1cccc2c(C3=NC(C)(C)C(F)(F)c4ccccc43)cnn12", "note": "[B-7, 4,4-difluoro-3,3-dimethyl-1-(7-methylpyrazolo[1,5-a]pyridin-3-yl)isoquinoline]", "values": [{"measurement": "inhibition at 0.0006 ppm", "setting": "[1]; [4]", "result": 18, "unit": "%"}, {"measurement": "inhibition at 0.0012 ppm", "setting": "[1]; [5]", "result": 40, "unit": "%"}, {"measurement": "inhibition at 0.01 ppm", "setting": "[2]; Alternaria solani, component (B) alone at 0.0100 ppm, 48 hours, read-out: (B) inhibition", "result": 63, "unit": "%"}]}
{"molecule": "Cc1ccc2c(ncn2C2=NC(C)(C)C(F)(F)c3ccccc32)c1C", "note": "[B-9, 1-(4,5-dimethylbenzimidazol-1-yl)-4,4-difluoro-3,3-dimethyl-isoquinoline]", "values": [{"measurement": "inhibition at 0.0003 ppm", "setting": "[1]; [3]", "result": 9, "unit": "%"}, {"measurement": "inhibition at 0.0006 ppm", "setting": "[1]; [4]", "result": 28, "unit": "%"}, {"measurement": "inhibition at 0.0012 ppm", "setting": "[1]; [5]", "result": 45, "unit": "%"}, {"measurement": "inhibition at 0.0012 ppm", "setting": "[2]; Alternaria solani, 48 hours", "result": 24, "unit": "%"}]}
{"molecule": "Cc1cccc2c1ncn2C1=NC(C)(C)C(F)(F)c2cc(Cl)ccc21", "note": "[B-10, 6-chloro-4,4-difluoro-3,3-dimethyl-1-(4-methylbenzimidazol-1-yl)isoquinoline]", "values": [{"measurement": "inhibition at 0.0006 ppm", "setting": "[1]; [4]", "result": 21, "unit": "%"}, {"measurement": "inhibition at 0.0012 ppm", "setting": "[1]; [5]", "result": 39, "unit": "%"}, {"measurement": "inhibition at 0.0025 ppm", "setting": "[1]; [9]", "result": 49, "unit": "%"}]}
